Experimental data published in the supplement of paper PMC8612539.

System: Histophilus somni
Experiment: minimum inhibitory concentration (MIC)
Protocol: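 Broth microdilution MIC (Sensititre BOPO7F bovine plate, CLSI methods) of 19 antimicrobials against field isolates of P. multocida, M. haemolytica, H. somni (deep nasopharyngeal swabs) and E. coli, Enterococcus spp. (rectal swabs) from weaned dairy heifers. Incubation 16-24 h at 35 C. MIC is the lowest concentration preventing visible growth. Values with <= or > lie at the tested range limits. Trimethoprim-sulfamethoxazole is given as the trimethoprim component of a 1:19 mixture.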

COc1cc(NS(=O)(=O)c2ccc(N)cc2)nc(OC)n1 [sulfadimethoxine]
Details | minimum inhibitory concentration [µg/mL]
isolate (source animal id): 3 | ≤ 256
isolate (source animal id): 4 | ≤ 256
isolate (source animal id): 7 | ≤ 256
isolate (source animal id): 14 | ≤ 256
isolate (source animal id): 15 | ≤ 256
isolate (source animal id): 17 | ≤ 256
isolate (source animal id): 18 | ≤ 256
isolate (source animal id): 20 | ≤ 256
isolate (source animal id): 23 | > 256
isolate (source animal id): 45 | > 256
isolate (source animal id): 53 | > 256
isolate (source animal id): 83 | ≤ 256
isolate (source animal id): 88 | ≤ 256
isolate (source animal id): 92 | ≤ 256
isolate (source animal id): 93 | ≤ 256
isolate (source animal id): 99 | ≤ 256
isolate (source animal id): 100 | ≤ 256
isolate (source animal id): 105 | ≤ 256
isolate (source animal id): 107 | ≤ 256
isolate (source animal id): 108 | ≤ 256
isolate (source animal id): 109 | ≤ 256
isolate (source animal id): 110 | ≤ 256
isolate (source animal id): 117 | ≤ 256
isolate (source animal id): 121 | ≤ 256
isolate (source animal id): 123 | ≤ 256
isolate (source animal id): 124 | ≤ 256
isolate (source animal id): 127 | ≤ 256
isolate (source animal id): 128 | ≤ 256
isolate (source animal id): 130 | ≤ 256
isolate (source animal id): 132 | ≤ 256
isolate (source animal id): 135 | ≤ 256
isolate (source animal id): 140 | ≤ 256
isolate (source animal id): 141 | ≤ 256
isolate (source animal id): 142 | ≤ 256
isolate (source animal id): 144 | ≤ 256
isolate (source animal id): 146 | ≤ 256
isolate (source animal id): 147 | ≤ 256
isolate (source animal id): 151 | ≤ 256
isolate (source animal id): 153 | ≤ 256
isolate (source animal id): 154 | ≤ 256
isolate (source animal id): 156 | ≤ 256
isolate (source animal id): 157 | ≤ 256
isolate (source animal id): 176 | > 256
isolate (source animal id): 183 | > 256
isolate (source animal id): 186 | > 256
isolate (source animal id): 196 | > 256
isolate (source animal id): 198 | > 256
isolate (source animal id): 200 | > 256
isolate (source animal id): 206 | > 256
isolate (source animal id): 208 | > 256
isolate (source animal id): 210 | > 256
isolate (source animal id): 212 | ≤ 256
isolate (source animal id): 215 | > 256
isolate (source animal id): 216 | > 256
isolate (source animal id): 218 | ≤ 256
isolate (source animal id): 219 | > 256
isolate (source animal id): 224 | > 256
isolate (source animal id): 228 | > 256
isolate (source animal id): 230 | > 256
isolate (source animal id): 233 | > 256
isolate (source animal id): 238 | > 256
isolate (source animal id): 239 | ≤ 256
isolate (source animal id): 241 | > 256
isolate (source animal id): 242 | > 256
isolate (source animal id): 243 | ≤ 256
isolate (source animal id): 245 | > 256
isolate (source animal id): 246 | > 256
isolate (source animal id): 247 | > 256
isolate (source animal id): 248 | ≤ 256
isolate (source animal id): 250 | > 256
isolate (source animal id): 251 | > 256
isolate (source animal id): 252 | > 256
isolate (source animal id): 254 | > 256
isolate (source animal id): 258 | ≤ 256
isolate (source animal id): 259 | > 256
isolate (source animal id): 262 | ≤ 256
isolate (source animal id): 264 | ≤ 256
isolate (source animal id): 265 | > 256
isolate (source animal id): 266 | > 256
isolate (source animal id): 267 | > 256
isolate (source animal id): 269 | ≤ 256
isolate (source animal id): 271 | > 256
isolate (source animal id): 272 | > 256
isolate (source animal id): 274 | ≤ 256
isolate (source animal id): 276 | ≤ 256
isolate (source animal id): 278 | > 256
isolate (source animal id): 280 | > 256
isolate (source animal id): 281 | > 256
isolate (source animal id): 283 | ≤ 256
isolate (source animal id): 288 | ≤ 256
isolate (source animal id): 291 | ≤ 256
isolate (source animal id): 292 | > 256
isolate (source animal id): 296 | ≤ 256
isolate (source animal id): 306 | > 256
isolate (source animal id): 336 | ≤ 256
isolate (source animal id): 337 | ≤ 256
isolate (source animal id): 341 | ≤ 256
